Literature values in patent US8691277B2, “Long acting sustained-release formulation containing dopamine receptor agonist and the preparation method thereof” (Shandong Luye Pharmaceutical Co., Ltd., priority 2004, dated 2014).

Experiments:
[1] = in vivo
[2] = in vivo, po

half-life [1] | bioavailability [2] | SMILES
only a couple of hours |  | CCCN[C@H]1CCc2nc(N)sc2C1 [pramipexole]
only a couple of hours | 1-5% | CCCN(CCc1cccs1)[C@H]1CCc2c(O)cccc2C1 [rotigotine]
